The values below come from ChEMBL document CHEMBL4152314, “Symmetrical and unsymmetrical substituted 2,5-diarylidene cyclohexanones as anti-parasitic compounds” (Eur J Med Chem, 2018).

A short description of data set [1]: Cytotoxicity against African green monkey Vero cells assessed as growth inhibition. The class given is cell-based. To be noted: chlorocebus sabaeus.
For data set [2], the system named is Trypanosoma cruzi. As to the kind of experiment: Antiparasitic activity against trypomastigote form of Trypanosoma cruzi assessed as parasite lysis after 24 hrs by Pizzi-Brener method. The data set is classed as functional, organism-based.
Data set [3] can be described thus: Selectivity index, ratio of CC50 for African green monkey Vero cells to EC50 for trypomastigote form of Trypanosoma cruzi. The settings on record: read-out: Ratio CC50/EC50. The data set is classed as toxicity.
Data set [4] relates to Trypanosoma cruzi. As to the kind of experiment: Antiparasitic activity against epimastigote form of Trypanosoma cruzi Y assessed as parasite growth inhibition after 96 hrs by Neubauer hemocytometer. The class given is functional, organism-based.
In another data set the test system is Leishmania amazonensis. As to the kind of experiment: Antiparasitic activity against promastigote form of Leishmania amazonensis MHOM/BR/Josefa assessed as parasite growth inhibition after 72 hrs by Neubauer hemocytometer. The data set is classed as functional, organism-based.
Data set [5] can be described thus: Selectivity index, ratio of CC50 for African green monkey Vero cells to IC50 for epimastigote form of Trypanosoma cruzi Y. The data set is classed as toxicity. To be noted: read-out: Ratio CC50/IC50.
Data set [6] can be described thus: Selectivity index, ratio of CC50 for African green monkey Vero cells to IC50 for promastigote form of Leishmania amazonensis MHOM/BR/Josefa. The class given is toxicity. The settings on record: read-out: Ratio CC50/IC50.

For orientation: CC50 means the concentration giving 50% cytotoxicity. Broadly, the EC50 is the concentration at which the effect is half-maximal. Usually IC50 stands for the concentration needed to halve the response being measured. Regarding `O=C1/C(=C/c2ccc(Cl)cc2)CCC/C1=C\c1ccc(Cl)cc1`, in data set [1], the CC50 is 32.1 µM. Further, the half-maximal effective concentration (EC50) in the data set with Trypanosoma cruzi [2] came to 85.3 µM. For the same compound, the results for the selectivity ratio in data set [3], in data set [5] and in data set [6] were 0.4, 2 and 8.9, respectively. Further, the results for the IC50 with Trypanosoma cruzi [4] and with Leishmania amazonensis were 16.2 µM and 3.6 µM, respectively.

On to `O=C1/C(=C/c2ccc(Br)cc2)CCC/C1=C\c1ccc(Br)cc1`, for which the 50% cytotoxic concentration (CC50) in data set [1] turned out to be 58 µM. For the same compound, the EC50 with Trypanosoma cruzi [2] stood at 49 µM. Besides, the selectivity ratio in data set [3] came out at 1.2; in data set [5] it was 2; in data set [6], 13.8. Also, the IC50 came out at 29.3 µM with Trypanosoma cruzi [4] and 4.2 µM in the data set with Leishmania amazonensis.

As to `COc1cccc(/C=C2\CCC/C(=C\c3cccc(OC)c3OC)C2=O)c1OC`, the half-maximal cytotoxic concentration (CC50) in data set [1] came out at 24.9 µM. Further, the EC50 with Trypanosoma cruzi [2] came out at 27 µM. Also, the selectivity ratio in data set [3] came to 0.9; in data set [5], 1.1; in data set [6], 6.1. The IC50 in the data set with Trypanosoma cruzi [4] is 23.6 µM; in the data set on Leishmania amazonensis it was 4.1 µM.

With `O=C1/C(=C/c2ccc(F)cc2)CCC/C1=C\c1ccc(F)cc1`, the 50% cytotoxic concentration (CC50) in data set [1] turned out to be 34.4 µM. In addition, the EC50 in the data set on Trypanosoma cruzi [2] is 68.7 µM. The figures for the selectivity ratio in data set [3], in data set [5] and in data set [6] were 0.5, 1.4 and 8, respectively. For the same compound, the figures for the IC50 in the data set on Trypanosoma cruzi [4] and with Leishmania amazonensis were 24.7 µM and 4.3 µM, respectively.

Take `O=C1/C(=C/c2ccccc2)CCC/C1=C\c1ccccc1` [2,6-DIBENZYLIDENECYCLOHEXANONE]: the half-maximal cytotoxic concentration (CC50) in data set [1] came to 40.6 µM. Moreover, the concentration for a half-maximal effect (EC50) with Trypanosoma cruzi [2] came out at 76.2 µM. The selectivity ratio came to 0.5 in data set [3], 2.2 in data set [5] and 14.5 in data set [6]. For the same compound, the concentration for half-maximal inhibition (IC50) worked out at 18.4 µM with Trypanosoma cruzi [4] and 2.8 µM in the data set with Leishmania amazonensis.
